Data published in patent US20130237530A1, “BENZODIAZEPINE DERIVATIVES, COMPOSITIONS AND METHODS FOR TREATING COGNITIVE IMPAIRMENT” (priority 2010, published 2013).
“Also recorded” adds a separate entry of the source. Like-named read-outs stand apart in the source and are kept apart here.

Assays:
[1] = test system: aged-impaired (AI) rats; experiment: Morris water maze behavioral task, ICV infusion; type: in vivo, rat; details: 100 μg ICV
Protocol: The effects of 6,6 dimethyl-3-(3-hydroxypropyl)thio-1-(thiazol-2-yl)-6,7-dihydro-2-benzothiophen-4(5H)-one on the in vivo spatial memory retention of aged-impaired (AI) rats were assessed in a Morris water maze behavioral task. A water maze is a pool surrounded with a novel set of patterns relative to the maze.
Cognitively impaired aged rats were implanted unilaterally with a cannula into the lateral ventricle. Stereotaxic coordinates were 1.0 mm posterior to bregma, 1.5 mm lateral to midline, and 3.5 mm ventral to the skull surface. After about a week of recovery, the rats were pre-trained in a water maze for 2 days (6 trials per day) to locate a submerged escape platform hidden underneath the surface of the pool, in which the escape platform location varied from day to day. No intracerebroventricular (ICV) infusion was given during pre-training
After pre-training, rats received ICV infusion of either 100 μg 6,6 dimethyl-3-(3-hydroxypropyl)thio-1-(thiazol-2-yl)-6,7-dihydro-2-benzothiophen-4(5H)-one (n=6) in 5 μl DMSO or vehicle DMSO (n=5) 40 min prior to water maze training and testing. Training consisted of 8 trials per day for 2 days where the hidden escape platform remained in the same location. Rats were given 60 seconds to locate the platform with a 60 seconds inter-trial interval. The rats were given a probe test (120 seconds) 24 hr after the end of training where the escape platform was removed. During the training, there were 4 blocks, where each block had 4 training trials.
During a test trial 24 hr after training, the escape platform was removed. The search/swim pattern of the rats was used to measure whether the rats remember where the escape platform was located during pre-trial training in order to test for the long-term memory of the rats. In this trial, “target annulus” is a designated area 1.5 times the size of the escape platform around the area where the platform was located during pre-trial training “Opposite annulus” is a control area of the same size as the size of the target annulus, which is located opposite to the target annulus in the pool. If the rats had good long term memory, they would tend to search in the area surrounding the location where the platform was during the pre-trial training (i.e., the “target” annulus; and not the “opposite” annulus). “Time in annulus” is the amount of time in seconds that the rat spent in the target or opposite annulus area. “Number (#) of crossings” in annulus is the number of times the rat swam across the target or opposite annulus area.

[2] = biological target: T1, GABAA receptors (α5β3γ2) (Homo sapiens, UniProt P18507+P28472+P31644); experiment: Potentiation of GABA EC50 current, two-electrode voltage clamp (TEVC) in Xenopus oocytes expressing GABAA α5β3γ2; type: cell-based; details: read-out: GABA α5 EC50 % potentiation
T1 construct: myc-His (from vector pcDNA3.1 myc-His); expressed in transfected cells; host or cells: Xenopus laevis oocytes injected with cDNAs in pcDNA3.1 / pcDNA3.1 myc-His
Protocol: The agonist activity of the compounds of this invention was determined by measuring their effect on GABA-gated Cl— current from Xenopus oocytes expressing GABAA α5β3γ2 subtype receptor in a two-electrode voltage clamp (TEVC) setup.
In this study, the GABA-gated Cl^− current from oocytes expressing GABAAR α5β3γ2 subtype was measured in the TEVC setup in the presence of the test compounds. […] Upon conclusion of compound testing and successful washout, a 1.0 μM diazepam was tested and used for comparative activity on the two GABAAR subtypes.
Other concentrations of the test compound may also be tested following the same protocol.
Results are expressed as mean±SEM.

[3] = in vivo; type: in vivo, Long Evans rats; details: male, Long Evans, rat, iv, tracer 1 μg/kg, i.v., after vehicle administration
Excerpt: (§1) Food and water were available ad libitum.

[4] = test system: GABAA α5 receptor; experiment: in vivo; type: in vivo, Long Evans rats; details: i.v.; for effect on Ro 15-4513 binding/levels in cerebellum: 0.01-10 mg/kg
Excerpt: as §1

[5] = test system: aged-impaired (AI) rats; experiment: Radial Arm Maze (RAM) behavioral task, spatial memory retention; type: in vivo, rat
Protocol: The effects of methyl 3,5-diphenylpyridazine-4-carboxylate on the in vivo spatial memory retention of aged-impaired (AI) rats were assessed in a Radial Arm Maze (RAM) behavioral task using vehicle control and four different dosage levels of methyl 3,5-diphenylpyridazine-4-carboxylate ([…]). RAM behavioral tasks were performed on eight AI rats. All five treatment conditions (vehicle and four dosage levels) were tested on all eight rats.
The RAM apparatus used consisted of eight equidistantly-spaced arms. An elevated maze arm (7 cm width×75 cm length) projected from each facet of an octagonal center platform (30 cm diameter, 51.5 cm height). Clear side walls on the arms were 10 cm high and were angled at 65° to form a trough. A food well (4 cm diameter, 2 cm deep) was located at the distal end of each arm. Froot Loops™ (Kellogg Company) were used as rewards. Blocks constructed of Plexiglas™ (30 cm height×12 cm width) could be positioned to prevent entry to any arm. Numerous extra maze cues surrounding the apparatus were also provided.
The AI rats were initially subjected to a pre-training test (Chappell et al. Neuropharmacology 37: 481-487, 1998). The pre-training test consisted of a habituation phase (4 days), a training phase on the standard win-shift task (18 days) and another training phase (14 days) in which a brief delay was imposed between presentation of a subset of arms designated by the experimenter (e.g., 5 arms available and 3 arms blocked) and completion of the eight-arm win-shift task (i.e., with all eight arms available).
In the habituation phase, rats were familiarized to the maze for an 8-minute session on four consecutive days. In each of these sessions, food rewards were scattered on the RAM, initially on the center platform and arms and then progressively confined to the arms. After this habituation phase, a standard training protocol was used, in which a food pellet was located at the end of each arm. Rats received one trial each day for 18 days. Each daily trial terminated when all eight food pellets had been obtained or when either 16 choices were made or 15 minutes had elapsed. After completion of this training phase, a second training phase was carried out in which the memory demand was increased by imposing a brief delay during the trial. At the beginning of each trial, three arms of the eight-arm maze were blocked. Rats were allowed to obtain food on the five arms to which access was permitted during this initial “information phase” of the trial. Rats were then removed from the maze for 60 seconds, during which time the barriers on the maze were removed, thus allowing access to all eight arms. Rats were then placed back onto the center platform and allowed to obtain the remaining food rewards during this “retention test” phase of the trial. […]

[6] = biological target: T2, GABAA α5 receptor (Rattus norvegicus, UniProt P18508+P19969); experiment: in vivo; type: in vivo, Long Evans rats; details: for effect on Ro 15-4513 binding in hippocampus: 0.01-10 mg/kg; for dose dependence of GABAA α5 receptor occupancy: administered intravenously
T2 construct: from tissue; host or cells: rat brain in vivo; hippocampus compared with cerebellum
Excerpt: as §1

[7] = in vivo; type: in vivo, Long Evans rats; details: for concentration at 35 min: male, young Long Evans rats
Protocol: as §1
For plasma exposures, blood samples were centrifuged at 14000 rpm for 16 minutes. After centrifuging, 50 ul of supernatant (plasma) from each sample was added to 200 μl of acetonitrile plus 0.1% formic acid. […] Samples were sonicated for 5 minutes in an ultrasonic water bath, followed by centrifugation for 30 minutes, at 16000 RPM. 100 ul of supernatant was removed from each sample vial and placed in a new glass auto sample vial, followed by the addition of 300 μl of sterile water (pH 6.5).
Additional studies were conducted in aged Long-Evans rats in order to determine the exposures at the behaviorally relevant doses in the cognition studies. Exposure in young Long-Evans rats was also determined to bridge with the receptor occupancy studies that were conducted in young Long-Evans rats. Exposures in young and aged Long-Evans rats were relatively similar (Table 3, FIG. 4).

[8] = biological target: α5-containing GABAA R (Homo sapiens, UniProt P18507+P31644); details: (EC20); van Niel et al. J. Med. Chem. 2005; cited from earlier work
[9] = probe test 24 hr after training
[10] = dose increase from 1 to 10 mg/kg, i.v.

T2 sequence (P19969 32-464 limits assumed): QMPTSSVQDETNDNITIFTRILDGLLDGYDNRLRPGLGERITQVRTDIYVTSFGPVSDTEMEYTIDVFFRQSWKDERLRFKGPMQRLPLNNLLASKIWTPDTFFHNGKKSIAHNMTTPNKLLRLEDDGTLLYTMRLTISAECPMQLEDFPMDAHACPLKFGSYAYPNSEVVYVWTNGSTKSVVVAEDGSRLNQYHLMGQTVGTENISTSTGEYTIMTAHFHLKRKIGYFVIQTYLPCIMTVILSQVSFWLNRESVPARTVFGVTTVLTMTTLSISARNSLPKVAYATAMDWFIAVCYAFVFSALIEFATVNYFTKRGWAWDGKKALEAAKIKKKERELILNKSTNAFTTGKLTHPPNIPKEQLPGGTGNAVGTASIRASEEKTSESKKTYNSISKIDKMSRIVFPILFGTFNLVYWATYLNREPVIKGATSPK
T2 sequence (P18508 39-466): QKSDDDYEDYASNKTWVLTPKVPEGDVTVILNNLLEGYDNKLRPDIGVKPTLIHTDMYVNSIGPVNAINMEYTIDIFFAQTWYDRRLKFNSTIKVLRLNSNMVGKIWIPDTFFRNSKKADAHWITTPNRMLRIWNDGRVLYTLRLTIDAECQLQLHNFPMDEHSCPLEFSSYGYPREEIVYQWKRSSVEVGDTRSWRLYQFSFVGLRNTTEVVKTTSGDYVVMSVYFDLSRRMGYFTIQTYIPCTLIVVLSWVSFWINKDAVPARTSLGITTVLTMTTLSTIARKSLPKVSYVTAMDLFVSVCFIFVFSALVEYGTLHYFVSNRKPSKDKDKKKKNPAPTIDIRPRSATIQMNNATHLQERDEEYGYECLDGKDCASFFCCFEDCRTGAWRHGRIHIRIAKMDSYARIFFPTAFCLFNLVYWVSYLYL
T1 sequence (P31644 32-462): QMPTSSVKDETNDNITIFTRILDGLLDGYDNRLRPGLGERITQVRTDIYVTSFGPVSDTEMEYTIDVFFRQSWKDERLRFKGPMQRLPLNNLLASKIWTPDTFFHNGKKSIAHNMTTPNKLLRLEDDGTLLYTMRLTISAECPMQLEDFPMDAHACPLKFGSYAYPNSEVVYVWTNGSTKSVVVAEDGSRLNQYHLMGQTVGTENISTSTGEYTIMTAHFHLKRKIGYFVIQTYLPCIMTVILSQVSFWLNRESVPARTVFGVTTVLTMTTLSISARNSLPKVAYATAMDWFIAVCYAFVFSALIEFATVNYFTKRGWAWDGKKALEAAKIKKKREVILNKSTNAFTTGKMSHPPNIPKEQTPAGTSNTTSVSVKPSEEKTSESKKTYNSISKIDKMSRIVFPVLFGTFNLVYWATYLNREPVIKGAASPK
T1 sequence (P28472 26-473): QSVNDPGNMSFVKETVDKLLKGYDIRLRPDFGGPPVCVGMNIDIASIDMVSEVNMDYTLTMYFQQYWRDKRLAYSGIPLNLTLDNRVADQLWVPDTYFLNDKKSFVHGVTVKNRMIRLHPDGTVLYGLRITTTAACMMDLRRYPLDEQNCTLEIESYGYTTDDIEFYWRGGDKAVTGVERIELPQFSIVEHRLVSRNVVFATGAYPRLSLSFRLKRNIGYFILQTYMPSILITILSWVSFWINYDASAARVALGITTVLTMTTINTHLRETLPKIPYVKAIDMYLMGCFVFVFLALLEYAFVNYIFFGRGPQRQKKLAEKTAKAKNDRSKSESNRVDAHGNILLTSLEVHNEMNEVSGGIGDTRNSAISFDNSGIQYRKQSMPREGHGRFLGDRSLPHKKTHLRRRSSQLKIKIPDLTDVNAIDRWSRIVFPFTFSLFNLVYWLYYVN
T1 sequence (P18507 40-475): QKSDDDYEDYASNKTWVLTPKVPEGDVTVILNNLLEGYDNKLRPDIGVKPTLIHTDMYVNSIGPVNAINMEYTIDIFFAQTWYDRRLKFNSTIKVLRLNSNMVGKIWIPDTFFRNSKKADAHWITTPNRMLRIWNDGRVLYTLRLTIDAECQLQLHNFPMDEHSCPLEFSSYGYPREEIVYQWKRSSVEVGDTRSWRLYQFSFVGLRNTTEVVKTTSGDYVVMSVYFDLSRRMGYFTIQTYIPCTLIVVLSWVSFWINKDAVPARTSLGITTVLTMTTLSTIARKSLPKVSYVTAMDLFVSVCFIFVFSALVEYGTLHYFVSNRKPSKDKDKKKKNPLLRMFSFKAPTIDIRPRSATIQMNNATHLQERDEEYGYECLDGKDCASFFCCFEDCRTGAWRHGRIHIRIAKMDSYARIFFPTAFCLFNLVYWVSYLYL
Sequence of α5-containing GABAA R (P31644 32-462): as the sequence (P31644 32-462) above
Sequence of α5-containing GABAA R (P28472 26-473 partner): as the sequence (P28472 26-473) above
Sequence of α5-containing GABAA R (P18507 40-475): as the sequence (P18507 40-475) above

SMILES: CC1(C)CC(=O)c2c(SCCCO)sc(-c3nccs3)c2C1 [6,6 dimethyl-3-(3-hydroxypropyl)thio-1-(thiazol-2-yl)-6,7-dihydro-2-benzothiophen-4(5H)-one]
- learning of the water maze task [1]: improved the learning of the water maze task
- long-term memory in the water maze task [1]: improved the long-term memory
- time to find the escape platform (escape latency) ([1]; beginning of training (block 1)): about 24 seconds
- time to find the escape platform (escape latency) ([1]; end of training (block 4)): about 9.6 seconds
- number of crossings of target annulus vs opposite annulus [1, 9]: crossed the “target annulus” more often
- time in target annulus vs opposite annulus [1, 9]: spent significantly more time in the target annulus

SMILES: CCN(CC)C(=O)c1ncn2c1Cn1nnc(C)c1-c1cc(OC)ccc1-2 [Compound 2]
- activation at 10 µM [2]: 6.2%

SMILES: CCc1nnn2c1-c1cc(OC)ccc1-n1cnc(C(=O)N(CC)CC)c1C2 [Compound 7]
- activation at 1 µM [2]: 11.1%

SMILES: CCOC(=O)c1ncn2c1Cn1nnc(C)c1-c1cc(Cl)ccc1-2 [Compound 9]
- activation at 1 µM [2]: 8.3%

SMILES: CCOC(=O)c1ncn2c1CN(C)C(=O)c1cc(N=[N+]=[N-])ccc1-2 [Ro 15-4513]
- concentration at 20 min ([3]; cerebellum, read-out: levels of Ro 15-4513 in cerebellum): 0.36 ± 0.02 ng/g
- concentration at 20 min ([3]; hippocampus, read-out: levels of Ro 15-4513 in hippocampus): 1.93 ± 0.05 ng/g
- higher levels in hippocampus compared with cerebellum ([4]; tracer 1 μg/kg, after vehicle administration): > 5 fold

SMILES: CCOC(=O)c1ncn2c1Cn1c(C)nnc1-c1cc(OC)ccc1-2 [ethyl 3-methoxy-7-methyl-9H-benzo[f]imidazo[1,5-a][1,2,4]triazolo[4,3-d][1,4]diazepine-10-carboxylate]
- memory performance relative to vehicle control ([5]; 3 mg/kg, four-hour delay RAM, t(7)=4.13, p=0.004, or t(7)=3.08, p=0.018): significantly improved memory performance
- memory performance relative to vehicle control ([5]; 10 mg/kg, four-hour delay RAM, t(7)=2.82, p=0.026): significantly improved memory performance
- effect on Ro 15-4513 binding in hippocampus ([6]; i.v.): blocked the binding of Ro154513 in the hippocampus; also recorded: reduced Ro 15-4513 binding in hippocampus
- GABAA α5 receptor occupancy ([6]; 10 mg/kg, i.v.): > 90%
- dose dependence of GABAA α5 receptor occupancy [6]: dose-dependent
- effect on Ro 15-4513 binding/levels in cerebellum [4]: did not affect binding of Ro15413 in the cerebellum; also recorded: without affecting cerebellum levels of Ro 15-4513

SMILES: COC(=O)c1c(-c2ccccc2)cnnc1-c1ccccc1 [methyl 3,5-diphenylpyridazine-4-carboxylate]
- average no. of errors ± SEM in retention test ([5]; 3 mg/kg i.p., two-hour delay RAM, AI rats): 1.31±0.40
- memory performance relative to vehicle control ([5]; 3 mg/kg i.p., two-hour delay RAM, t(7)=4.233, p=0.004): significantly improved memory performance
- effect on Ro 15-4513 binding in hippocampus ([6]; i.v.): blocked the binding of Ro154513 in the hippocampus; also recorded: dose-dependently reduced Ro 15-4513 binding in hippocampus
- dose dependence of GABAA α5 receptor occupancy [6]: dose-dependent increase
- effect on Ro 15-4513 binding/levels in cerebellum [4]: did not affect binding of Ro15413 in the cerebellum; also recorded: without affecting cerebellum levels of Ro 15-4513
- Kp ([7]; Long Evans, rat, in vivo, read-out: brain/plasma ratios): > 1
- increase in hippocampal exposure ([7]; dose increase from 0.1 to 1 mg/kg, i.v.): 12 fold
- increase in hippocampal exposure [7, 10]: ~5 fold
- increase in plasma exposure [7, 10]: 12 fold
- concentration at 35 min ([7]; Long Evans, rat, in vivo, 0.1 mg/kg, i.v., read-out: Hippocampus exposure (SEM)): 14.6 ng/g
- concentration at 35 min ([7]; Long Evans, rat, in vivo, 1 mg/kg, i.v., read-out: Hippocampus exposure (SEM)): 180 ng/g
- concentration at 35 min ([7]; Long Evans, rat, in vivo, 1 mg/kg, i.v., read-out: Plasma exposure (SEM)): 62.8 ng/mL
- concentration at 35 min ([7]; Long Evans, rat, in vivo, 10 mg/kg, i.v., read-out: Hippocampus exposure (SEM)): 947 ng/g
- concentration at 35 min ([7]; Long Evans, rat, in vivo, 10 mg/kg, i.v., read-out: Plasma exposure (SEM)): 764 ng/mL
- α5 in vitro efficacy [8]: +27
